Consider 26 compounds from US12351580B2, “NLRP3 modulators” (Innate Tumor Immunity, Inc., priority 2017, dated 2025).

Where a name gives a salt, the structure may show the parent alone.

The test addresses T1, hNLRP3 (Homo sapiens, UniProt Q96P20).
T1 construct: THP-1 cells were purchased from the American Type Culture Collection; host or cells: THP-1 cells, PMA-differentiated
As to the kind of experiment: Measurement of IL-1β production in PMA-differentiated THP-1 cells (hNLRP3 agonist; ELISA, alternative and hTRF procedures). Format: cell-based. The essentials: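 PMA-differentiated THP-1 cells (PMA […] 24 h, 20 μg/ml overnight, or 50 ng/ml overnight, by procedure) replated in RPMI with 2% FBS and exposed to compound (e.g. 100–0.1 μM, 1% DMSO; hTRF format top 10 μM) for 4 h, 2 h, or 2 h respectively. Supernatant IL-1β measured by ELISA, or by hTRF with antibodies diluted 1:40.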

T1 sequence (Q96P20 whole entry): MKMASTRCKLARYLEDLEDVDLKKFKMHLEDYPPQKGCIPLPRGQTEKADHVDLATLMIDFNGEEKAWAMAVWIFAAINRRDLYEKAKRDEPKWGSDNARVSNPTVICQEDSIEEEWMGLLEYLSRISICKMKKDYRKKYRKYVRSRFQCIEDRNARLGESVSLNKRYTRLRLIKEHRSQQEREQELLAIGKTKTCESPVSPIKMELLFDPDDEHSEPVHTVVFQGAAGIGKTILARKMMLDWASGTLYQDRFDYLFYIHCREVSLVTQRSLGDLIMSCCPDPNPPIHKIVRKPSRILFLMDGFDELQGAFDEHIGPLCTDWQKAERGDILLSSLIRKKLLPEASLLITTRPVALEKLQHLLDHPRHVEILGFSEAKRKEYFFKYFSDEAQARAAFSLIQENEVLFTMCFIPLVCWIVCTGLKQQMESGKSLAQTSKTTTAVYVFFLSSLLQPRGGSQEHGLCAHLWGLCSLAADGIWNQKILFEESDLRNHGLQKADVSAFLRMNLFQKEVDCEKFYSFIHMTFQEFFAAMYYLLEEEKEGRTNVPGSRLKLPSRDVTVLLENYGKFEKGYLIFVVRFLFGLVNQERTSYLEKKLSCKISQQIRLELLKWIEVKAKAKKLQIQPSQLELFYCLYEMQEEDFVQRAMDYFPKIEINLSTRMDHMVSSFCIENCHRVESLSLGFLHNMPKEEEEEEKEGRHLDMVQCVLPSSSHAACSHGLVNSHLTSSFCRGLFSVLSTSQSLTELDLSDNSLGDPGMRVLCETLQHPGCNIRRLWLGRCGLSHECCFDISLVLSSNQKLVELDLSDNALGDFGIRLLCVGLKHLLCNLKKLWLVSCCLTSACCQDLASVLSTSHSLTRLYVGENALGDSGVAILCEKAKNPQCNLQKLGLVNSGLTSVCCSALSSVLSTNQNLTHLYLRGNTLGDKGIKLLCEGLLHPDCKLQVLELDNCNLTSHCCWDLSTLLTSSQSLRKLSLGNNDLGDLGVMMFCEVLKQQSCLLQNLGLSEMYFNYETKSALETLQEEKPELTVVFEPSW

Consider `CCNCc1nc2c(N)nc3cc(-c4cc[nH]n4)ccc3c2[nH]1` [Compound 101, 2-[(Ethylamino)methyl]-7-(1H-pyrazol-3-yl)-1H-imidazo[4,5-c]quinolin-4-amine hydrochloride], for which the EC50 came to 0.27 µM.

On to `CC(=O)N(C)Cc1nc2c(N)nc3cc(-n4cccn4)ccc3c2[nH]1` [Compound 102, N-((4-Amino-7-(1H-pyrazol-1-yl)-1H-imidazo[4,5-c]quinolin-2-yl)methyl)-N-methylacetamide], for which it took 1.6 µM to reach a half-maximal effect (EC50). `CN(Cc1nc2c(N)nc3cc(-n4cccn4)ccc3c2[nH]1)S(C)(=O)=O` [Compound 119] showed a 50% effective concentration (EC50) of 1.38 µM.

In turn, `CN(Cc1nc2c(N)nc3cc(-c4cc[nH]n4)ccc3c2[nH]1)C(=O)C1CC1` [Compound 120] displayed an EC50 of 1.69 µM. Turning to `CCN(Cc1nc2c(N)nc3cc(-c4cc[nH]n4)ccc3c2n1C)C(C)=O` [Compound 121], the EC50 was 1.82 µM. The compound `CCC(=O)N(C)Cc1nc2c(N)nc3cc(-c4cc[nH]n4)ccc3c2[nH]1` [Compound 122] had an EC50 of 1.4 µM. Compound `CCN(Cc1nc2c(N)nc3cc(-c4cc[nH]n4)ccc3c2[nH]1)S(C)(=O)=O` [Compound 124] gave an EC50 of 2.4 µM. With `CCC(=O)N(CC)Cc1nc2c(N)nc3cc(-c4cc[nH]n4)ccc3c2[nH]1` [Compound 125], the EC50 amounted to 2.1 µM. Turning to `CCN(Cc1nc2c(N)nc3cc(-c4cc[nH]n4)ccc3c2[nH]1)C(=O)NC` [Compound 128], the concentration giving a half-maximal response (EC50) came to 2.9 µM.

The compound `CC(=O)N(C)Cc1nc2c(N)nc3cc(-c4cc[nH]n4)ccc3c2[nH]1` [Compound 129] gave an EC50 of 3.6 µM. `CCN(Cc1nc2c(N)nc3cc(-n4cccn4)ccc3c2[nH]1)C(N)=O` [Compound 130] displayed an EC50 of 3.3 µM. The result for `NCc1nc2c(N)nc3cc(-c4cc[nH]n4)ccc3c2[nH]1` [Compound 131] reads 3.5 µM; that for `CCN(Cc1nc2c(N)nc3cc(-n4nccn4)ccc3c2[nH]1)C(C)=O` [Compound 132], 3.5 µM; that for `CC(c1nc2c(N)nc3cc(-c4cccnc4)ccc3c2[nH]1)N1CCCC1=O` (centres unmarked) [Compound 138], 6.7 µM. `CC(=O)N(Cc1nc2c(N)nc3cc(-c4cc[nH]n4)ccc3c2[nH]1)C(C)C` [Compound 140] had an EC50 of 7.3 µM. In the case of `Nc1nc2ccc(Cl)cc2c2[nH]c(CN3CCCC3=O)nc12` [Compound 141], the EC50 was 9 µM. Take `CC(C)(C)OC(=O)NCc1nc2c(N)nc3cc(-c4cc[nH]n4)ccc3c2[nH]1` [Compound 142]: the half-maximal effective concentration (EC50) came to 9.1 µM.

Turning to `Nc1nc2cc(Cl)ccc2c2[nH]c(CN3CCCC3=O)nc12` [Compound 143], a half-maximal response (EC50) required 9.4 µM. `Nc1nc2cc(-c3ccc(Cl)nc3)ccc2c2[nH]c(CN3CCCC3=O)nc12` [Compound 153] had a 50% effective concentration (EC50) of 12 µM. Compound `CCNCc1nc2c(N)nc3cc(OC)ccc3c2[nH]1` [Compound 154] returned an EC50 of 16.1 µM.

`CCN(Cc1nc2c(N)nc3cc(-c4ncc[nH]4)ccc3c2[nH]1)C(=O)OC(C)(C)C` [Compound 155] registered a concentration for a half-maximal effect (EC50) of 17.4 µM. The result for `Nc1nc2cc(-n3ncc4ccccc43)ccc2c2[nH]c(CN3CCCC3=O)nc12` [Compound 157] reads 23.4 µM; that for `CCN(Cc1nc2c(N)nc3cc(OC)ccc3c2[nH]1)C(C)=O` [Compound 158, N-((4-Amino-7-methoxy-1H-imidazo[4,5-c]quinolin-2-yl)methyl)-N-ethylacetamide], 24.5 µM. To `CCN(Cc1nc2c(N)nc3cc(Cl)c(Cl)cc3c2[nH]1)C(C)=O` [Compound 159] belongs 25.9 µM. With `CCNCc1nc2c(N)nc3cc(-c4ncc[nH]4)ccc3c2[nH]1` [Compound 162], the EC50 was 42 µM. `CCN(Cc1nc2c(N)nc3cc(-c4cc[nH]n4)ccc3c2[nH]1)CC(C)C` [Compound 453, 2-{[ethyl(2-methylpropyl)amino]methyl}-7-(1H-pyrazol-3-yl)-1H-imidazo[4,5-c]quinolin-4-amine] registered an EC50 of 0.71 µM.
